Experimental data reported in patent US20250092016A1, “COMPOUNDS AND COMPOSITIONS FOR THE TREATMENT OF CORONAVIRAL RELATED DISEASES” (priority 2021, published 2025).

What was measured:
[1] = biological target: T1, SARS-CoV-2 main protease (M^pro) (Severe acute respiratory syndrome coronavirus 2, UniProt P0DTD1); assay: Rapid-Fire MS Biochemical Assay measuring Mpro activity (12.5 nM Mpro); settings: Table 1A, Mpro inhibition, 5 μM substrate peptide, 30 min
[2] = biological target: T1, SARS-CoV-2 main protease (M^pro); assay: Rapid-Fire MS Biochemical Assay measuring Mpro activity (5 nM Mpro); settings: Table 1B, Mpro inhibition, 5 μM substrate peptide, 120 min, read-out: Rapid-Fire Assay IC50

`N#CC1CN(c2cccc(F)c2)C(=O)N1c1cncc2ccccc12` (racemic) [Compound 7, 1-(3-fluorophenyl)-3-(isoquinolin-4-yl)-2-oxoimidazolidine-4-carbonitrile] was tested, and the IC50 [1] was 0.006 µM and the IC50 [2] was < 0.02 µM.

`N#C[C@@H]1CN(c2cccc(Cl)c2)C(=O)N1c1cncc2ccccc12` (single isomer, unassigned) [Compound 2b] was tested, and the IC50 [1] was 3 µM and the IC50 [2] was > 1 µM.
